# Test results: paper PMC8998904, “Identification and New Indication of Melanin-Concentrating Hormone Receptor 1 (MCHR1) Antagonist Derived from Machine Learning and Transcriptome-Based Drug Repositioning Approaches” (International Journal of Molecular Sciences, 2022)
# Experiments:
# hERG channel = biological target: T1, hERG channel (Homo sapiens, UniProt Q12809); assay: Patch clamp assay on HEK293-hERG cells; type: cell-based
# T1 construct: host or cells: HEK293
# Method: An in vitro time-resolved fluorescence (TRF)-based binding assay for MCHR1 was performed to identify the MCHR1 antagonist from the 19 predicted compounds selected through in silico screening. […] In addition, a patch clamp assay was performed to measure the cardiotoxicity of the five compounds. […] Consequently, of the five compounds, only KRX-104130 and KRX-104165 overcame cardiotoxicity.
# Patch clamp assays were performed on HEK293 cells stably expressing the hERG channel (HEK293-hERG cells; Genionics, Switzerland). When the cells were more than 80% confluent, they were freshly dislodged from flasks with 0.05% trypsin–EDTA for 1–2 min, spun down twice at 700× g, suspended into the extracellular solution (in mmol/L at 1.8 × 10^6 per mL: 137 NaCl, 4 KCl, 1 MgCl2, 1.8 CaCl2, 10 HEPES, and 10 glucose, pH 7.4, adjusted with NaOH), and dispensed into a patch clamp plate. The cell density was adjusted to 2–3 × 10^5 cells/mL. After dispensing, the cells were applied to the AutoPatch system (PatchXpress 7000A, Molecular Devices, Sunnyvale, CA, USA). The hERG currents were evoked by two voltage pulses at 3 s interval. The voltage pulse consisted of a 100-ms step to −30 mV, a conditioning prepulse (2 s duration, +25 mV or +45 mV), followed by a test pulse (2 s duration, −30 mV) from a holding potential of −70 mV. After a 3 s interval at −70 mV, a second pulse protocol was applied, consisting of a 100-ms step to −30 mV, a prepulse (2 s duration, +45 mV), followed by a test pulse (2 s duration, −30 mV). Leak currents were linearly subtracted, extrapolating the current elicited by a 100-ms step to −80 mV from a holding potential of −70 mV. The experiment was initiated with a buffer control in the absence of the drug to calculate the IC50. The test compound was applied at low to high concentrations, and the tail current was monitored continuously. The compound effects were tested using six concentrations in three-fold dilutions from 1 to 300 µM.
# [1] = tested on: methionine-choline-deficient (MCD) diet induced NASH mouse model; assay: MCD diet-induced NASH mouse model; type: in vivo, C57BL/6 mice; settings: 30 mg/kg once-daily oral, 4 weeks
# Method: In addition, the MCD diet-induced histopathological changes, such as steatosis and fibrosis in liver tissues, were ameliorated by treatment with KRX-104130 (Figure 8D).
# Animal studies were carried out following the guidelines for animal care approved by the Institutional Animal Care and Use Committee at the Korea Research Institute of Chemical Technology (approval number: 2020-6A-10-01). Nine-week-old male C57BL/6 mice (Orient Bio, Sungnam, Korea) were randomly divided into three groups: a control group that was fed MCS diet, the NASH model group, and the treatment group that was fed an MCD diet with once-daily oral administration of vehicle (0.5% carboxymethyl cellulose) or 30 mg/kg KRX-104130. After 4 weeks of feeding, the mice were fasted overnight, and blood and tissue samples were obtained for biochemical and histological analyses. Liver TG levels and serum concentrations of liver injury markers, including ALT and AST, were determined using a colorimetric kit (MAK266, Sigma-Aldrich, St. Louis, MO, USA) or biochemical analyzer (AU480, Beckman Coulter, Atlanta, GA, USA), respectively, according to the manufacturer’s instructions. The left lobe of the liver was fixed in 10% neutralized buffered formalin and embedded in paraffin. Histological examination was performed using hematoxylin and eosin (H&E) and picrosirius red staining of 5 µm-thick sections.
# T1 sequence (Q12809 whole entry): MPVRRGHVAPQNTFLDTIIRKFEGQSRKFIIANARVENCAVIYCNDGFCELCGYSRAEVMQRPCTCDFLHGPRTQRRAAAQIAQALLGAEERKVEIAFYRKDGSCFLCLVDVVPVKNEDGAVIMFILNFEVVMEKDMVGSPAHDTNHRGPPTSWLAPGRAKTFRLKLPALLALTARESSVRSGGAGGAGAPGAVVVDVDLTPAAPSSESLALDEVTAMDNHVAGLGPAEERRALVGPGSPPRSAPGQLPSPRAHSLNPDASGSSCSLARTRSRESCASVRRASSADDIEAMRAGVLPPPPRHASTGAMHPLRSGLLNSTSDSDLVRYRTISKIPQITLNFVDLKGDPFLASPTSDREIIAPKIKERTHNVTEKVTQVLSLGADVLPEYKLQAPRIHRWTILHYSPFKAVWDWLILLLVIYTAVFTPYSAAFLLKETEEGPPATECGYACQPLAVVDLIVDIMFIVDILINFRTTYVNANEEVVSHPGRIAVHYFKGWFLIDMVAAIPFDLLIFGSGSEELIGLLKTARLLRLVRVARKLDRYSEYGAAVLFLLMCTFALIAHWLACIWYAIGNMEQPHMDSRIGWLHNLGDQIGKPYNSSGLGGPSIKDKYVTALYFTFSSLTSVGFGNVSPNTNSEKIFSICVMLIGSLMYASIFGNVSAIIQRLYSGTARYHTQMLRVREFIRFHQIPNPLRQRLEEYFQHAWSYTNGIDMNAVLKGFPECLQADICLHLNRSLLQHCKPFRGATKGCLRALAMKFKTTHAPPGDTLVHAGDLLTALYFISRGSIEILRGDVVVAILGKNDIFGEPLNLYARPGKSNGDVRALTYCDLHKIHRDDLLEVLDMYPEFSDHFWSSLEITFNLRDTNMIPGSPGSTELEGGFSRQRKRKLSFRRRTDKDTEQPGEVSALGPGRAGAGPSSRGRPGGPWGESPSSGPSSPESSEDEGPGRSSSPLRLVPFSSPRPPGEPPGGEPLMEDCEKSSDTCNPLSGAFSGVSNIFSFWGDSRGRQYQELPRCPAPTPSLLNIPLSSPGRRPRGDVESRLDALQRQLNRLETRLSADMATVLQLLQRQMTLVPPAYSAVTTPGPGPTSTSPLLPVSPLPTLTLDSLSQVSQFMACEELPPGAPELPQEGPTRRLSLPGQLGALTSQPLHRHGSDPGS
smiles,measurement,setting,value
COc1nc2cc(F)c(F)cc2nc1NC(=O)NC1CCN(Cc2cc3ccccc3[nH]2)CC1 [KRX-104130],IC50,hERG channel,13 µM
same,MCD diet-induced histopathological changes (steatosis and fibrosis in liver tissues),[1]; H&E and picrosirius red,ameliorated
same,Liver TG levels,[1]; mean ± S.E.M.,29.73 ± 1.54
same,Serum ALT,[1]; mean ± S.E.M.,163.67 ± 25.85
same,Serum AST,[1]; mean ± S.E.M.,170.5 ± 27.27
